Laboratory results taken from patent EP0353754A2, “Radioactively marked benzodiazepin derivates” (F. HOFFMANN-LA ROCHE AG, priority 1988, dated 1990).
Where two headings read alike, the source gives them in different places.

Experiment: Organ distribution of injected radioactivity in rats after I.V. injection
Assay type: in vivo, Ratten (weiblich, Wistar, spf)
Conditions: Ratte; for tissue uptake at 2 min / tissue uptake at 10 min / tissue uptake at 20 min / tissue uptake at 40 min / tissue uptake at 1 h / tissue uptake at 6 h / tissue uptake at 15 h: rat, iv, read-out: Prozent der injizierten Aktivität pro Gramm des entsprechenden Organs; for tissue uptake at 1 h: 60′
Experimental: Es werden je 3 Ratten (weiblich, Wistar, spf) zu sieben verschiedenen Zeitpunkten (2′, 10′, 20′, 40′, 1h, 6h, 15h) gemessen. Das Gewicht der Tiere lag zwischen 113 und 144 g. Die Fütterung erfolgte ad libitum. Die I.V. injizierten Dosen variierten von 184 bis 355 µCi in jeweils 0,2 ml.

For `CCOC(=O)c1ncn2c1CN(C)C(=O)c1c([123I])cccc1-2` [Aethyl-7-¹²³Jod-5,6-dihydro-5-methyl-6-oxo-4H-imidazo[1,5-a][1,4]benzodiazepin-3-carboxylat], which “Prozent der injizierten Aktivität in den entsprechend Organen” value (Totalkörper, 15h) is on record?
The value was 2,80 Prozent der injizierten Aktivität.

What about the tissue uptake at 2 min (bladder, Blase) of the same compound?
Its tissue uptake at 2 min is 0.59 %ID/g.

What about the tissue uptake at 10 min (bladder, Blase) of the same compound?
Its tissue uptake at 10 min is 1.07 %ID/g.

And the tissue uptake at 20 min (bladder, Blase)?
Its tissue uptake at 20 min is 0.69 %ID/g.

What about the tissue uptake at 40 min (bladder, Blase) of the same compound?
Its tissue uptake at 40 min is 0.24 %ID/g.

What about the tissue uptake at 1 h (bladder, Blase) of the same compound?
The tissue uptake at 1 h was 0.42 %ID/g.

What about the tissue uptake at 6 h (bladder, Blase) of the same compound?
Its tissue uptake at 6 h is 0.57 %ID/g.

What about the tissue uptake at 15 h (bladder, Blase, 15h) of the same compound?
Its tissue uptake at 15 h is 0.023 %ID/g.

What about the tissue uptake at 2 min (blood, Blut) of the same compound?
Its tissue uptake at 2 min is 0.7 %ID/g.

And the tissue uptake at 10 min (blood, Blut)?
The tissue uptake at 10 min was 0.87 %ID/g.

What about the tissue uptake at 20 min (blood, Blut) of the same compound?
The tissue uptake at 20 min was 0.46 %ID/g.

What about the tissue uptake at 40 min (blood, Blut) of the same compound?
The tissue uptake at 40 min was 0.17 %ID/g.

And the tissue uptake at 1 h (blood, Blut)?
Its tissue uptake at 1 h is 0.11 %ID/g.

And the tissue uptake at 6 h (blood, Blut)?
Its tissue uptake at 6 h is 0.04 %ID/g.

And the tissue uptake at 15 h (blood, Blut, 15h)?
The tissue uptake at 15 h was 0.013 %ID/g.

And the tissue uptake at 2 min (brain, Hirn)?
Its tissue uptake at 2 min is 2.12 %ID/g.

And the tissue uptake at 10 min (brain, Hirn)?
The tissue uptake at 10 min was 3.22 %ID/g.

What about the tissue uptake at 20 min (brain, Hirn) of the same compound?
Its tissue uptake at 20 min is 2.99 %ID/g.

What about the tissue uptake at 40 min (brain, Hirn) of the same compound?
The tissue uptake at 40 min was 2.7 %ID/g.

What about the tissue uptake at 1 h (brain, Hirn) of the same compound?
The tissue uptake at 1 h was 1.8 %ID/g.

And the tissue uptake at 6 h (brain, Hirn)?
Its tissue uptake at 6 h is 0.05 %ID/g.

And the tissue uptake at 15 h (brain, Hirn, 15h)?
Its tissue uptake at 15 h is 0.001 %ID/g.

And the tissue uptake at 2 min (heart, Herz)?
Its tissue uptake at 2 min is 0.86 %ID/g.

What about the tissue uptake at 10 min (heart, Herz) of the same compound?
The tissue uptake at 10 min was 0.66 %ID/g.

And the tissue uptake at 20 min (heart, Herz)?
The tissue uptake at 20 min was 0.3 %ID/g.

What about the tissue uptake at 40 min (heart, Herz) of the same compound?
Its tissue uptake at 40 min is 0.1 %ID/g.

What about the tissue uptake at 1 h (heart, Herz) of the same compound?
The tissue uptake at 1 h was 0.06 %ID/g.

What about the tissue uptake at 6 h (heart, Herz) of the same compound?
The tissue uptake at 6 h was 0.02 %ID/g.

And the tissue uptake at 15 h (heart, Herz, 15h)?
Its tissue uptake at 15 h is 0.007 %ID/g.

And the tissue uptake at 2 min (intestine, Darm)?
The tissue uptake at 2 min was 0.75 %ID/g.

And the tissue uptake at 10 min (intestine, Darm)?
Its tissue uptake at 10 min is 1.1 %ID/g.

What about the tissue uptake at 20 min (intestine, Darm) of the same compound?
Its tissue uptake at 20 min is 1.73 %ID/g.

And the tissue uptake at 40 min (intestine, Darm)?
Its tissue uptake at 40 min is 2.02 %ID/g.

What about the tissue uptake at 1 h (intestine, Darm) of the same compound?
Its tissue uptake at 1 h is 1.97 %ID/g.

And the tissue uptake at 6 h (intestine, Darm)?
The tissue uptake at 6 h was 1.55 %ID/g.

And the tissue uptake at 15 h (intestine, Darm, 15h)?
The tissue uptake at 15 h was 0.143 %ID/g.

And the tissue uptake at 2 min (Femur)?
The tissue uptake at 2 min was 0.54 %ID/g.

And the tissue uptake at 10 min (Femur)?
The tissue uptake at 10 min was 0.45 %ID/g.

What about the tissue uptake at 20 min (Femur) of the same compound?
The tissue uptake at 20 min was 0.24 %ID/g.

And the tissue uptake at 40 min (Femur)?
Its tissue uptake at 40 min is 0.1 %ID/g.

And the tissue uptake at 1 h (Femur)?
Its tissue uptake at 1 h is 0.07 %ID/g.

And the tissue uptake at 6 h (Femur)?
Its tissue uptake at 6 h is 0.02 %ID/g.

What about the tissue uptake at 15 h (Femur, 15h) of the same compound?
The tissue uptake at 15 h was 0.007 %ID/g.

And the tissue uptake at 2 min (kidney, Nieren)?
The tissue uptake at 2 min was 2.68 %ID/g.

And the tissue uptake at 10 min (kidney, Nieren)?
The tissue uptake at 10 min was 7.06 %ID/g.

And the tissue uptake at 20 min (kidney, Nieren)?
The tissue uptake at 20 min was 5.26 %ID/g.

What about the tissue uptake at 40 min (kidney, Nieren) of the same compound?
Its tissue uptake at 40 min is 1.35 %ID/g.

What about the tissue uptake at 1 h (kidney, Nieren) of the same compound?
The tissue uptake at 1 h was 0.68 %ID/g.

And the tissue uptake at 6 h (kidney, Nieren)?
Its tissue uptake at 6 h is 0.03 %ID/g.

And the tissue uptake at 15 h (kidney, Nieren, 15h)?
The tissue uptake at 15 h was 0.01 %ID/g.

And the tissue uptake at 2 min (liver, Leber)?
Its tissue uptake at 2 min is 2.38 %ID/g.

And the tissue uptake at 10 min (liver, Leber)?
The tissue uptake at 10 min was 5.66 %ID/g.

And the tissue uptake at 20 min (liver, Leber)?
Its tissue uptake at 20 min is 2.62 %ID/g.

And the tissue uptake at 40 min (liver, Leber)?
The tissue uptake at 40 min was 0.58 %ID/g.

What about the tissue uptake at 1 h (liver, Leber) of the same compound?
Its tissue uptake at 1 h is 0.19 %ID/g.

And the tissue uptake at 6 h (liver, Leber)?
The tissue uptake at 6 h was 0.02 %ID/g.

And the tissue uptake at 15 h (liver, Leber, 15h)?
Its tissue uptake at 15 h is 0.016 %ID/g.

What about the tissue uptake at 2 min (lung, Lunge) of the same compound?
Its tissue uptake at 2 min is 1.22 %ID/g.

And the tissue uptake at 10 min (lung, Lunge)?
Its tissue uptake at 10 min is 0.87 %ID/g.

What about the tissue uptake at 20 min (lung, Lunge) of the same compound?
The tissue uptake at 20 min was 0.44 %ID/g.

And the tissue uptake at 40 min (lung, Lunge)?
The tissue uptake at 40 min was 0.15 %ID/g.

And the tissue uptake at 1 h (lung, Lunge)?
The tissue uptake at 1 h was 0.1 %ID/g.

And the tissue uptake at 6 h (lung, Lunge)?
Its tissue uptake at 6 h is 0.03 %ID/g.

What about the tissue uptake at 15 h (lung, Lunge, 15h) of the same compound?
The tissue uptake at 15 h was 0.011 %ID/g.

What about the tissue uptake at 2 min (muscle, Muskel) of the same compound?
The tissue uptake at 2 min was 0.68 %ID/g.

And the tissue uptake at 10 min (muscle, Muskel)?
Its tissue uptake at 10 min is 0.42 %ID/g.

What about the tissue uptake at 20 min (muscle, Muskel) of the same compound?
The tissue uptake at 20 min was 0.2 %ID/g.

And the tissue uptake at 40 min (muscle, Muskel)?
Its tissue uptake at 40 min is 0.09 %ID/g.

And the tissue uptake at 1 h (muscle, Muskel)?
The tissue uptake at 1 h was 0.04 %ID/g.

And the tissue uptake at 6 h (muscle, Muskel)?
Its tissue uptake at 6 h is 0.01 %ID/g.

And the tissue uptake at 15 h (muscle, Muskel, 15h)?
Its tissue uptake at 15 h is 0.003 %ID/g.

What about the tissue uptake at 2 min (ovary, Ovar) of the same compound?
The tissue uptake at 2 min was 0.88 %ID/g.

And the tissue uptake at 10 min (ovary, Ovar)?
The tissue uptake at 10 min was 0.73 %ID/g.

And the tissue uptake at 20 min (ovary, Ovar)?
The tissue uptake at 20 min was 0.53 %ID/g.

What about the tissue uptake at 40 min (ovary, Ovar) of the same compound?
Its tissue uptake at 40 min is 0.22 %ID/g.

And the tissue uptake at 1 h (ovary, Ovar)?
The tissue uptake at 1 h was 0.16 %ID/g.

What about the tissue uptake at 6 h (ovary, Ovar) of the same compound?
Its tissue uptake at 6 h is 0.03 %ID/g.

What about the tissue uptake at 15 h (ovary, Ovar, 15h) of the same compound?
Its tissue uptake at 15 h is 0.011 %ID/g.

What about the tissue uptake at 2 min (spleen, Milz) of the same compound?
The tissue uptake at 2 min was 0.6 %ID/g.

What about the tissue uptake at 10 min (spleen, Milz) of the same compound?
The tissue uptake at 10 min was 0.53 %ID/g.

And the tissue uptake at 20 min (spleen, Milz)?
The tissue uptake at 20 min was 0.29 %ID/g.

What about the tissue uptake at 40 min (spleen, Milz) of the same compound?
Its tissue uptake at 40 min is 0.14 %ID/g.

What about the tissue uptake at 1 h (spleen, Milz) of the same compound?
Its tissue uptake at 1 h is 0.07 %ID/g.

And the tissue uptake at 6 h (spleen, Milz)?
Its tissue uptake at 6 h is 0.02 %ID/g.

And the tissue uptake at 15 h (spleen, Milz, 15h)?
Its tissue uptake at 15 h is 0.01 %ID/g.

What about the tissue uptake at 2 min (stomach, Magen) of the same compound?
Its tissue uptake at 2 min is 0.19 %ID/g.

And the tissue uptake at 10 min (stomach, Magen)?
Its tissue uptake at 10 min is 0.41 %ID/g.

And the tissue uptake at 20 min (stomach, Magen)?
The tissue uptake at 20 min was 0.35 %ID/g.

And the tissue uptake at 40 min (stomach, Magen)?
The tissue uptake at 40 min was 0.27 %ID/g.

What about the tissue uptake at 1 h (stomach, Magen) of the same compound?
Its tissue uptake at 1 h is 0.48 %ID/g.

What about the tissue uptake at 6 h (stomach, Magen) of the same compound?
Its tissue uptake at 6 h is 0.73 %ID/g.

And the tissue uptake at 15 h (stomach, Magen, 15h)?
Its tissue uptake at 15 h is 0.08 %ID/g.

What about the tissue uptake at 2 min (thyroid, Schilddrüse) of the same compound?
The tissue uptake at 2 min was 0.6 %ID/g.

And the tissue uptake at 10 min (thyroid, Schilddrüse)?
The tissue uptake at 10 min was 0.54 %ID/g.

What about the tissue uptake at 20 min (thyroid, Schilddrüse) of the same compound?
Its tissue uptake at 20 min is 1.22 %ID/g.

What about the tissue uptake at 40 min (thyroid, Schilddrüse) of the same compound?
Its tissue uptake at 40 min is 0.08 %ID/g.

And the tissue uptake at 1 h (thyroid, Schilddrüse)?
Its tissue uptake at 1 h is 0.06 %ID/g.

And the tissue uptake at 6 h (thyroid, Schilddrüse)?
The tissue uptake at 6 h was 0.03 %ID/g.

And the tissue uptake at 15 h (thyroid, Schilddrüse, 15h)?
Its tissue uptake at 15 h is 0.007 %ID/g.
